Experiments:
[1] = rat, in vivo, ip
Protocol: TCDD was administered i.p. in a single dose of 40 μg/kg in sesame oil (0.5 ml) to 125 gm female Sprague Dawley rats. One group of 4 rats received 2 doses of CGT (4.5 mmole/kg) in sesame oil (1.0 ml) by stomach tube at 3 hours and a second dose at 0.5 hours before treatment with TCDD. A second, TCDD-treated group received oil only in place of the CGT. Control rats received oil only by stomach tube and i.p. injection.

Morris Hepatoma 7777 = assay: growth of transplanted Morris Hepatoma 7777; format: in vivo, rat; settings: 2% CGT diet from one week before transplant, male Buffalo rats
Protocol: One group of male Buffalo rats was put on 2% CGT diet one week before the hepatoma transplant, while the other group of rats (controls) was kept on the regular chow diet. A minimum number of Morris Hepatoma 7777 cells consistent with tumor growth were innoculated subcutaneously in the left flank of all rats. Tumor diameters were measured at least twice weekly, and tumor volume was calculated.

[2] = tested on: DMBA-induced mammary tumors; assay: DMBA-induced mammary tumorigenesis, initiation, promotion and tumor regression; format: in vivo, rat
Protocol: Fifty day old female Sprague Dawley rats were utilized in these experiments. For induction of mammary tumors the rats received a single dose of 130 mg/kg of DMBA in sesame oil by gavage. Animals pretreated with CGT received 4.5 mmoles/kg of CGT in sesame oil at 3 hours and again at 0.5 hours before administration of the carcinogen. This protocol tests the inhibitory effect of CGT on the initiation phase. Alternatively, the rats were fed a standard chow diet supplemented with 10% CGT (w/w). To evaluate the effect of CGT on the promotion phase the rats were changed from the chow diet to the CGT supplemented diet two weeks after treatment with DMBA. One mole of glucarate is converted to approximately one-third of a mole of GL in an equilibrated aqueous solution.
The mammary tumors were measured with micrometer calipers. Two measurements were taken, the longest dimension and dimension at right angles to this parameter.
At this time, the rats were transferred from a chow diet to a chow diet supplemented with 10% CGT. This diet was continued until the termination of the experiment. […] Three groups each, with eighteen 50 day old rats, were given intragastrically a single dose of 20 mg of DMBA in 1.0 ml of sesame oil. One group ( -- ) received 4.5 mmoles/kg of CGT by stomach tube at 3 hours and again at 0.5 hours before DMBA. A second (control) group (.circle.O--O.circle.) received vehicle (i.e. sesame oil) only at the same two time periods. Both of these groups were then put on regular chow diet.

[3] = tested on: diabetes, rheumatoid arthritis, toxemia in pregnancy and bladder cancer; settings: review of the medical literature; cited from earlier work
bladder tumor = settings: Miyakawa et al. 1973; DAGDL given at same time as carcinogen; cited from earlier work
Organ DNA = assay: in vivo covalent binding of [14C]BP to organ DNA; set-up: species or system rat; settings: for Covalent Binding Index (of BP), +DAGDL: DAGDL 1.5 mmol/kg 0.5 hours before [14C]BP; for inhibition at 1500 µmol/kg: Rattus norvegicus, DAGDL 1.5 mmol/kg
Protocol: Experimental rats were pretreated 0.5 hours earlier with one dose of 1.5 mmol/kg body weight of DAGDL which was administered by stomach tube as a suspension in 1.0 ml of sesame oil, while control rats received the vehicle only. The experimental and control group contained 2 rats each. Heart, kidney, liver, lung and mammary gland were removed under ether anesthesia 48 hours post-administration of BP. The DNA was isolated immediately and purified by chloroform phenol extraction of organ homogenates. In the case of mammary gland, the homogenate was treated with collagenase II. Following purification with ribonuclease A and protease K, the DNA concentration was estimated by U.V. absorption and the bound radioactivity was determined by radioassay in liquid scintillant.
In this experiment 50 day old female rats of the Sprague Dawley strain received 1.5 mmol/kg of DAGDL 0.5 hours before the intraperitoneal injection of 7.9 μmol/kg of [^14 C]BP. The DNA was extracted from the tissues and radioassayed by established procedures.

[4] = tested on: tumor initiation by 7,12-dimethylbenzanthracene (DMBA); settings: Walaszek et al. 1984; cited from earlier work
serum β-glucuronidase [5] = molecular target: T1, serum β-glucuronidase (Rattus norvegicus, UniProt P06760); settings: Iida et al. 1965; cited from earlier work
T1 sequence (P06760 23-648): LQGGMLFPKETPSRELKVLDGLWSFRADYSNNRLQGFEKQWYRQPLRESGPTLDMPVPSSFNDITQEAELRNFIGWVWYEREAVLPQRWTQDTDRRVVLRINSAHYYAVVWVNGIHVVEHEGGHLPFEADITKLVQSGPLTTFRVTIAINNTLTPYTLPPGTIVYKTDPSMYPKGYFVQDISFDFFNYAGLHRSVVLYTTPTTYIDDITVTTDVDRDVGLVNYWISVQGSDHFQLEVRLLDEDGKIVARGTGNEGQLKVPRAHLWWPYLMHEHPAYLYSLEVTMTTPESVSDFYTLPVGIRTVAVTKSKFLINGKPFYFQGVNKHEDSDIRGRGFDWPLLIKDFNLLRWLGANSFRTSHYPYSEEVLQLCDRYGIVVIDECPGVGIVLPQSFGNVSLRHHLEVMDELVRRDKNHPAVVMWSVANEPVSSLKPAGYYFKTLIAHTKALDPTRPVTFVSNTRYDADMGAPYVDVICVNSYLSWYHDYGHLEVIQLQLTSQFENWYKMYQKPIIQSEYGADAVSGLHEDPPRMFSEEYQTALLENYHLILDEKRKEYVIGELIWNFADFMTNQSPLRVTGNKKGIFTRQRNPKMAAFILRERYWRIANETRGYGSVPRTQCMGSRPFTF

serum β-glucuronidase [6] = molecular target: T1, serum β-glucuronidase; format: in vivo; settings: 1.0 mmoles/kg i.g., assayed 1 hour after administration
[7] = acute toxicity (weight loss) of N-methylnitrosourea; format: in vivo, rat; settings: 21 days after treatment with MNU

**Q.** Which results are given for `O=C([O-])[C@@H](O)[C@@H](O)[C@H](O)[C@@H](O)C(=O)[O-].[Ca+2]` [CGT, calcium D-glucarate]?
**A.** effect on TCDD toxicity [1]: definite anti-"TCDD toxicity" effect; tumor growth compared with control group (Morris Hepatoma 7777): slightly slower; effect on DMBA-induced tumors which escape the anti-promoter effects ([2]; 10% CGT diet): significant regression; reduction of the overall tumor incidence due to tumor regression ([2]; 10% CGT diet): 14%; effect on promotion phase of DMBA-induced mammary carcinogenesis ([2]; 10% CGT diet from 2 weeks post-DMBA): significantly inhibits the promotion phase; tumor induction as percent of that in the controls ([2]; 10% CGT diet from 2 weeks post-DMBA (promotion phase), by 28 weeks): 30%; Average Tumor Volume ([2]; 10% CGT diet, 16 wks (spread ± 0.57 on separate line)): 2.82 cm^3; Average Tumor Volume ([2]; 10% CGT diet, 20 wks (spread ± 0.76 on separate line)): 2.17 cm^3; Average Tumor Volume ([2]; 10% CGT diet, 24 wks (spread ± 0.87 on separate line)): 1.87 cm^3; Average Tumor Volume ([2]; 10% CGT diet, 28 wks): 1.20 ± 0.82 cm^3; Average Tumor Volume ([2]; 10% CGT diet, 32 wks): 1.02 ± 0.77 cm^3; reduction in percentage of rats with tumors ([2]; 10% CGT diet, average, between 18 and 28 days (so in the source)): 70%; overall tumor incidence ([2]; 10% CGT supplemented diet beginning 2 weeks post-DMBA treatment): 33%; tumors per rat in rats with tumors ([2]; CGT diet supplemented group, essentially all rats with tumors): only one tumor per rat

**Q.** With `CC(=O)O[C@@H]1C(=O)O[C@H]2[C@@H]1OC(=O)[C@@H]2OC(C)=O` [DAGDL, 2,5-di-O-acetyl-D-glucaro-1,4;6,3-dilactone] as the compound, how does the “treatment of existing diseases” value [3] read?
**A.** unsuccessful

**Q.** And the “effect on bladder tumor incidence with 2-AAF” value (bladder tumor)?
**A.** did not disclose any significant difference

**Q.** And the “Covalent Binding Index (of BP), +DAGDL” value (Organ DNA; Heart)?
**A.** 10

**Q.** And the “Covalent Binding Index (of BP), +DAGDL” value (Organ DNA; Kidney)?
**A.** 12

**Q.** And the “Covalent Binding Index (of BP), +DAGDL” value (Organ DNA; Liver)?
**A.** 9

**Q.** What about the “Covalent Binding Index (of BP), +DAGDL” value (Organ DNA; Lung) of the same compound?
**A.** 8

**Q.** What about the “Covalent Binding Index (of BP), +DAGDL” value (Organ DNA; Mammary gland) of the same compound?
**A.** 20

**Q.** What about the inhibition at 1500 µmol/kg (Organ DNA; Heart) of the same compound?
**A.** 44%

**Q.** And the inhibition at 1500 µmol/kg (Organ DNA; Kidney)?
**A.** 69%

**Q.** And the inhibition at 1500 µmol/kg (Organ DNA; Liver)?
**A.** 63%

**Q.** And the inhibition at 1500 µmol/kg (Organ DNA; Lung)?
**A.** 72%

**Q.** What about the inhibition at 1500 µmol/kg (Organ DNA; Mammary gland) of the same compound?
**A.** 47%

**Q.** What about the “effect on initiation of tumor by DMBA” value [4] of the same compound?
**A.** inhibited

**Q.** What about the “potency as in vivo β-glucuronidase inhibitor” value (serum β-glucuronidase [5]) of the same compound?
**A.** potent

**Q.** And the “reduction of serum β-glucuronidase activity” value (serum β-glucuronidase [6])?
**A.** 50%

**Q.** What about the “difference in toxicity-induced weight loss of DAGDL-treated and non-treated rats” value [7] of the same compound?
**A.** approximately 100 g

— patent publication US4845123A, “Reduction in vivo of the inappropriate levels of endogenous and environmental-derived compounds by sustained-release inhibitors of β- g” (priority 1985, dated 1989)
